From the NIST ThermoML archive (doi:10.1016/j.tca.2016.02.008)
Numbers after ± are expanded uncertainties.

What was measured:
[1] = for Normal melting temperature: DTA
[2] = Molar enthalpy of transition or fusion; details: DSC

Row | Normal melting temperature ([1]; Crystal 1) | Triple point temperature ([1]; Crystal 2, DSC) | Molar enthalpy of transition or fusion ([2]; Crystal 1) | Molar enthalpy of transition or fusion ([2]; Crystal 2) | Normal melting temperature ([1]; Crystal) | Molar enthalpy of transition or fusion ([2]; Crystal) | SMILES
1 | 13.70 ± 0.4 °C | 268.95 ± 0.8 K | 8.99 ± 0.454 kcal/mol | 1.87 ± 0.1 kcal/mol | – | – | CCCCCCCC/C=C\CCCCCCCC(=O)O [(Z)-9-octadecenoic acid]
2 | – | – | – | – | -5.40 ± 0.4 °C | 7.46 ± 0.382 kcal/mol | CCCCC/C=C\C/C=C\CCCCCCCC(=O)O [(Z,Z)-9,12-octadecadienoic acid]
3 | – | – | – | – | -10.90 ± 0.4 °C | 6.99 ± 0.359 kcal/mol | CC/C=C\C/C=C\C/C=C\CCCCCCCC(=O)O [all-cis-9,12,15-octadecatrienoic acid]
4 | – | – | – | – | 63.10 ± 0.4 °C | 12.9 ± 0.645 kcal/mol | CCCCCCCCCCCCCCCC(=O)O [hexadecanoic acid]
5 | – | – | – | – | 70.60 ± 0.4 °C | 15.1 ± 0.741 kcal/mol | CCCCCCCCCCCCCCCCCC(=O)O [octadecanoic acid]
